Measured values published in article PMC10671074, “Tumor Regression upon Intratumoral and Subcutaneous Dosing of the STING Agonist ALG-031048 in Mouse Efficacy Models” (International Journal of Molecular Sciences, 2023).
Where “and” joins values, the source holds several entries; their conditions need not be identical. Equal entries are not always repeated. Where two headings read alike, the source gives them in different places. Marks after values point to notes of the source that are not given here.

Tests used:
[1] = biological target: T1, STING R232 (Homo sapiens, UniProt Q86WV6, H232R); assay: HEK 293 STING R232 IRF reporter assay; format: cell-based; design: host or cells: 293T-Dual hSTING-R232 (HEK 293T derived); settings: HEK 293 STING R232 cells, digitonin dosing buffer 30 min, 20 h; mean±standard deviation; read-out: Reporter Cell Assay EC50, STING R232 IRF
Protocol: Assays were set up after allowing cells to adhere for 48 h. Compounds dissolved in water were serially diluted in dosing buffer containing 10 µg/mL of digitonin (MP Biomedicals, Solon, OH, USA). Media were aspirated from the cells, and 50 µL of buffer with compound was added in triplicate. […] An aliquot of 100 µL of CellTiter-Glo® (Promega, Madison, WI, USA) was added to the original plate still containing the cells, and luminescence was determined to measure viability. All readouts were measured on an Envision plate reader from Perkin Elmer. Data were analyzed using GraphPad™ Prism’s version 8.0 [Agonist] vs. response—variable slope (four parameters) model.
Target sequence in this assay (Q86WV6 whole entry H232R): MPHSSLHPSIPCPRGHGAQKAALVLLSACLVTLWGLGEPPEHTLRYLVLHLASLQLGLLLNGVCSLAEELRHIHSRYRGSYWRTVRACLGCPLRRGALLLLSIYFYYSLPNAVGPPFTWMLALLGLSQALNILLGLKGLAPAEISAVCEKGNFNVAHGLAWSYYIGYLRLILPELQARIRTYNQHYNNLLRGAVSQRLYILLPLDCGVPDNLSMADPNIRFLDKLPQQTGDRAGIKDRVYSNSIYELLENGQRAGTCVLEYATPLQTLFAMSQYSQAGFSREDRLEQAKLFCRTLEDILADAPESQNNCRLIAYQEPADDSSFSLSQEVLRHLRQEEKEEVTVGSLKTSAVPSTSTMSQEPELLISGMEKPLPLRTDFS

[2] = tested on: subcutaneous CT26 tumors; settings: for Delay of tumor growth compared with vehicle / Delayed Response (TV > 10 and <2000 mm^3) / Treatment Failure (TV > 2000 mm^3) / Complete Response (TV < 10 mm^3) / Median Time to Endpoint: 3 × q3d; for Median Time to Endpoint: vehicle 17.0
Protocol: Each mouse was inoculated subcutaneously in the right flank with 3 × 10^5 CT26 cells (in 0.1 mL PBS) for tumor development.
PBS was used as the vehicle control. […] Vehicles and test compounds were administered IT q3d × 3 in a volume of 0.05 mL. SC administration was performed between the shoulder blades at a dosing volume of 10 mL/kg. Tumors were measured twice a week in two dimensions using calipers, and volume was calculated using Formula (1):Tumor Volume (mm^3) = 0.5 (w^2 × l)(1)
Here, w = width and l = length, in mm, of a tumor.
Tumor weight was estimated with the assumption that 1 mg is equivalent to 1 mm^3 of tumor volume.
Animals were euthanized when (1) their tumor reached the endpoint volume of 2000 mm^3, (2) their body weight loss exceeded 30%, or (3) on the last day of the study, whichever came first. The TTE for analysis was calculated for each mouse by the following Equation (2):TTE = (log10 (endpoint volume) − b)/m(2)
TTE is expressed in days, endpoint volume is expressed in mm^3, b is the intercept, and m is the slope of the line obtained via linear regression of a log-transformed tumor growth data set. […] Animals were weighed on Days 1–5, then twice weekly for the duration of the study.

[3] = biological target: T1, STING R232; assay: Thermal shift binding assay (differential scanning fluorimetry)
Protocol: Each sample was prepared in a total volume of 40 μL that contained a 5× final concentration of SYPRO orange (Invitrogen, Carlsbad, CA, USA) in buffer (20 mM of HEPES pH 7.5, 150 mM of NaCl, 1 mM of DTT, and 1 mM of MgCl2) and 4 μM of STING C-terminal domain protein with and without a test article. […] The resulting fluorescence intensity from the raw dissociation curve data were used to determine the melting temperature for STING protein alone or with a compound. Melting temperature from protein alone was then subtracted from all melting temperatures of protein in the presence of compound, and a resulting melting temperature vs. compound concentration provided apparent Kd values as generated using a sigmoidal dose–response (variable slope) equation in GraphPadPrism version 8.0 (GraphPad Software, Boston, MA, USA).
Target sequence in this assay (Q86WV6 139-379 H232R): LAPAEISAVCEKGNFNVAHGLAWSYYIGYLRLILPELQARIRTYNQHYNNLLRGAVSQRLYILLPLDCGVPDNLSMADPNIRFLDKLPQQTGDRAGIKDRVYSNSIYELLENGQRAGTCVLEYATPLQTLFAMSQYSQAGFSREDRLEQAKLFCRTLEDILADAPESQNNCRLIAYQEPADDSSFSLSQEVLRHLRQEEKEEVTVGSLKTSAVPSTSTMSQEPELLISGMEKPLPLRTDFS

[4] = Table 2 study, 25 μg IT, n = 10
[5] = Table 2 study, 100 μg IT, n = 10
[6] = Table 3/4 study, 25 μg IT, n = 10

CO[C@H]1[C@H]2OP(=O)(O)OC[C@@]34C[C@@H]3[C@@H](n3cnc5c(N)ncnc53)[C@H](O)[C@@H]4O[P@](=O)(S)OC[C@H]1O[C@H]2n1cnc2c(=O)[nH]c(N)nc21 [ALG-031048]
EC50 [1]: 29 nM | Delay of tumor growth compared with vehicle ([2]; CT26, 1 mg/kg SC): 4.0 days | Delay of tumor growth compared with vehicle ([2]; CT26, 4 mg/kg SC): 21.0 days | Time mice remained tumor-free after the last dose ([2]; CT26, longest observation in any study): approximately 2.5 months | Complete tumor suppression, initial CT26 tumor ([2]; Figure 5B study, three IT doses of 100 μg): 100% | Delayed Response (TV > 10 and <2000 mm^3) [2, 4]: 10% ^c | Treatment Failure (TV > 2000 mm^3) [2, 4]: 44% ^c | Delayed Response (TV > 10 and <2000 mm^3) [2, 5]: 0% | Treatment Failure (TV > 2000 mm^3) [2, 5]: 10% | Complete Response (TV < 10 mm^3) [2, 6]: 0% | Delayed Response (TV > 10 and <2000 mm^3) [2, 6]: 0% | Treatment Failure (TV > 2000 mm^3) [2, 6]: 100% | TV at end of study of animal with delayed response ([2]; Table 4 study, 100 μg IT): 18 mm^3 | Delayed Response (TV > 10 and <2000 mm^3) ([2]; Table 4 study, 100 μg IT): 10% ^b | Treatment Failure (TV > 2000 mm^3) ([2]; Table 4 study, 100 μg IT): 50% | Complete Response (TV < 10 mm^3) ([2]; Table 4 study, 100 μg IT, n = 10): 40% | Median Time to Endpoint ([2]; Table 4 study, 100 μg IT): 38.0 days | Delayed Response (TV > 10 and <2000 mm^3) ([2]; Table 4 study, 1 mg/kg SC): 0% | Treatment Failure (TV > 2000 mm^3) ([2]; Table 4 study, 1 mg/kg SC): 100% | Complete Response (TV < 10 mm^3) ([2]; Table 4 study, 1 mg/kg SC, n = 10): 0% | Median Time to Endpoint ([2]; Table 4 study, 1 mg/kg SC): 21.0 days | TV at end of study of animal with delayed response ([2]; Table 4 study, 4 mg/kg SC): 1568 mm^3 | Delayed Response (TV > 10 and <2000 mm^3) ([2]; Table 4 study, 4 mg/kg SC): 10% ^a | Treatment Failure (TV > 2000 mm^3) ([2]; Table 4 study, 4 mg/kg SC): 80% | Complete Response (TV < 10 mm^3) ([2]; Table 4 study, 4 mg/kg SC, n = 10): 10% | Median Time to Endpoint ([2]; Table 4 study, 4 mg/kg SC): 35.0 days | Kd [3]: 2710 nM | Maximum temperature shift ([3]; STING R232 thermal shift assay, mean±standard deviation): 13.8 °C and 13.8±2.98 °C
